The numbers were not newly measured in US10149395B2, “Water-based organic solderability preservative, and electronic board and surface treatment method using the same” (TAMURA CORPORATION, priority 2016, dated 2018), which cites them from elsewhere.

For this data set the following is noted: at 20 degrees C.
On to `COC(C)COC(C)COC(C)CO` (stereo not shown) [Organic solvent A, tripropylene glycol monomethyl ether], for which the solubility to water entry is “miscible in all proportions”. Turning to `COCC(C)O` (stereo not shown) [Organic solvent C, propylene glycol monomethyl ether], the solubility to water entry is reported as “miscible in all proportions”. Turning to `COCCOCCOCCOCCOC` [Organic solvent D, tetraethylene glycol dimethyl ether], the solubility to water result was “miscible in all proportions”. Turning to `OCC1CCCO1` (stereo not shown) [Organic solvent E, tetrahydrofurfuryl alcohol], the solubility to water entry is listed as “miscible in all proportions”.

Regarding `COCC(C)OC(C)=O` (stereo not shown) [Organic solvent F, propylene glycol monomethyl ether acetate], the solubility to water is given as 18.5 g/100 g. Turning to `OCCOc1ccccc1` [Organic solvent G, phenyl glycol], the solubility to water is listed as 2.7 g/100 g. In the case of `CCCCOCC(C)OCC(C)OCC(C)O` (stereo not shown) [Organic solvent H, butylpropylene triglycol], the solubility to water is given as 0.4 g/100 g. Turning to `CCCCOCCOCCOCCCC` [Organic solvent I, diethylene glycol dibutylether], the solubility to water is given as 0.3 g/100 g.

Take `CCO` [Organic solvent J, ethyl alcohol]: the solubility to water result is reported as “miscible in all proportions”. As for `CC(C)O` [Organic solvent K, isopropyl alcohol], the solubility to water entry was “miscible in all proportions”.
